Assay results as given in US4247559A, “N-substituted maleimides in liquid concentrates” (Abbott Laboratories, priority 1979, dated 1981).

Assays:
Assay type in all cases: cell-based
[1] = tested on: most common industrial fungi and bacteria; assay: biocidal activity (summary statements on bacteria and fungi); settings: conclusion from the table, in words
Description: The new compounds are dissolved in DMF at a concentration of 50 mg/ml. and diluted with water to the appropriate concentration to be added to a nutrient broth in test tubes. The challenge mixture contains 1×10^6 colony-forming units each of Aerobacter aerogenes, Pseudomonoas Sp., Bacillus subtilus and Bacillus megaterium. Following inoculation, the tubes are incubated 48 hours at 37° C., subcultured to fresh nutrient broth and incubated 24 hours longer. The results are recorded as presence or absence of turbidity, turbidity indicating growth of the inoculum due to inactivity of the biocide at the concentration used in the broth. In a related test, the above biocide solutions are added to agar plates at various concentrations and the plates are then inoculated with 1 ml. of a broth containing 10,000 units each of A. niger and P. funiculosum. The plates are then incubated at 30° C. for two weeks, and growth of the fungi is visually inspected to establish the minimum inhibitory concentration (MIC).

[2] = tested on: A. niger and P. funiculosum; assay: antifungal test on agar plates, visual inspection of growth; set-up: unit not given here; settings: agar plates, 10,000 units each, 30° C. for two weeks
Description: In a related test, the above biocide solutions are added to agar plates at various concentrations and the plates are then inoculated with 1 ml. of a broth containing 10,000 units each of A. niger and P. funiculosum. The plates are then incubated at 30° C. for two weeks, and growth of the fungi is visually inspected to establish the minimum inhibitory concentration (MIC).

[3] = tested on: Aerobacter aerogenes, Pseudomonoas Sp., Bacillus subtilus and Bacillus megaterium; assay: antibacterial test in nutrient broth tubes, presence or absence of turbidity; set-up: unit not given here; settings: 48 hours at 37° C., subcultured and incubated 24 hours longer, challenge 1×10^6 colony-forming units each
Description: The new compounds are dissolved in DMF at a concentration of 50 mg/ml. and diluted with water to the appropriate concentration to be added to a nutrient broth in test tubes. The challenge mixture contains 1×10^6 colony-forming units each of Aerobacter aerogenes, Pseudomonoas Sp., Bacillus subtilus and Bacillus megaterium. Following inoculation, the tubes are incubated 48 hours at 37° C., subcultured to fresh nutrient broth and incubated 24 hours longer. The results are recorded as presence or absence of turbidity, turbidity indicating growth of the inoculum due to inactivity of the biocide at the concentration used in the broth.

Antifungal MIC [2]	Antibacterial MIC [3]	SMILES	biocidal activity [1]
inactive	inactive	O=C1C=CC(=O)N1c1ccc(S(=O)(=O)C(Cl)(Cl)Cl)cc1 [R= CCL3, reference compound]	ineffective
100		O=C1C=CC(=O)N1c1ccc(S(=O)(=O)CI)cc1 [R= p-CH2 I]	
1000	1000	O=C1C=CC(=O)N1c1ccc(S(=O)(=O)C(Cl)Cl)cc1 [R= p-CHCl2, N-[p-(dichloromethylsulfonyl)phenyl]maleimide]	
1000	1000	O=C1C=CC(=O)N1c1ccc(S(=O)(=O)C(I)I)cc1 [R= p-CHI2, N-[p-(diiodomethylsulfonyl)phenyl]maleimide]	
1000	1000	O=C1C=CC(=O)N1c1ccc(S(=O)(=O)CCl)cc1 [R=p-CH2 Cl, N-[p-(chloromethylsulfonyl)phenyl]maleimide]	
